Legend:
[1] = target: 5-hydroxytryptamine receptor 7 (Homo sapiens) (UniProt P34969); conditions: Compound concentration 10.0 uM
[2] = target: High affinity nerve growth factor receptor (Homo sapiens) (UniProt P04629); experiment: NTRK1 (TRKA) Kinase screen; conditions: Compound concentration 1.0 uM
[3] = target: T1, Mitogen-activated protein kinase 12 (Homo sapiens) (UniProt P53778); experiment: MAPK12 (p38 gamma) Kinase screen; conditions: Compound concentration 1.0 uM
T1 sequence (whole entry): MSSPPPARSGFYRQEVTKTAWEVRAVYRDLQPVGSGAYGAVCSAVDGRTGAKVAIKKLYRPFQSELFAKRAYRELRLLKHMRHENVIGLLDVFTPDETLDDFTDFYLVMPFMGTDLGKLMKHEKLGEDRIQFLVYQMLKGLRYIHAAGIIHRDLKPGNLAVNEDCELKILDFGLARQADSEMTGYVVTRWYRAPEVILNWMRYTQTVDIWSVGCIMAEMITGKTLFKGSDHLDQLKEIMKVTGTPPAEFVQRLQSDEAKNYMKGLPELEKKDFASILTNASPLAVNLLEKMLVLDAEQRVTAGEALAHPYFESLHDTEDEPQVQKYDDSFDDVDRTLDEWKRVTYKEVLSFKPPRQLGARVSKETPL

[4] = target: T2, cGMP-dependent protein kinase 2 (Homo sapiens) (UniProt Q13237); experiment: PRKG2 (PKG2) Kinase screen; conditions: Compound concentration 1.0 uM
T2 sequence (whole entry): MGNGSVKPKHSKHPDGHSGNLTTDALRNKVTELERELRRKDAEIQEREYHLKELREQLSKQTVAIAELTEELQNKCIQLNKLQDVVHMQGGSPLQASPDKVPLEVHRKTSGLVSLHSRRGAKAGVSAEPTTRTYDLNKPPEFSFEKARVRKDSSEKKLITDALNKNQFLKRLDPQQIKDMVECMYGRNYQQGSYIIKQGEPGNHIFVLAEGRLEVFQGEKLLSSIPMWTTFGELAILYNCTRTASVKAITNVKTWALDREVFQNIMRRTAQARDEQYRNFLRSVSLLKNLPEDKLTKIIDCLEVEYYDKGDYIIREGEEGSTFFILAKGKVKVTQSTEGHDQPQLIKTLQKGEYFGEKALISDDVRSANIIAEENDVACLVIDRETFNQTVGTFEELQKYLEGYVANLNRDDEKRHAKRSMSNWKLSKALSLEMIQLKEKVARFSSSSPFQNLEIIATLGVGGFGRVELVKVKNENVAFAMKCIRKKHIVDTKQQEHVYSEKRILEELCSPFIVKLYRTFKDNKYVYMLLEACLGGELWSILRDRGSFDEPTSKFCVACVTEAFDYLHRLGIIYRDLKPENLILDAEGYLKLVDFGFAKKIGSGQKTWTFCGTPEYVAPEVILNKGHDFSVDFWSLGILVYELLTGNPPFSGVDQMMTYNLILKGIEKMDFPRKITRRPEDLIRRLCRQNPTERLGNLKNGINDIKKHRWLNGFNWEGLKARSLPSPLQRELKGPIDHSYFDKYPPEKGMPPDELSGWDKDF

[5] = target: Serine/threonine-protein kinase PAK 5 (Homo sapiens) (UniProt Q9P286); experiment: PAK7 (KIAA1264) Kinase screen; conditions: Compound concentration 1.0 uM
Serine/threonine-protein kinase PAK 5 (Homo sapiens), sequence (Q9P286 whole entry, looked up): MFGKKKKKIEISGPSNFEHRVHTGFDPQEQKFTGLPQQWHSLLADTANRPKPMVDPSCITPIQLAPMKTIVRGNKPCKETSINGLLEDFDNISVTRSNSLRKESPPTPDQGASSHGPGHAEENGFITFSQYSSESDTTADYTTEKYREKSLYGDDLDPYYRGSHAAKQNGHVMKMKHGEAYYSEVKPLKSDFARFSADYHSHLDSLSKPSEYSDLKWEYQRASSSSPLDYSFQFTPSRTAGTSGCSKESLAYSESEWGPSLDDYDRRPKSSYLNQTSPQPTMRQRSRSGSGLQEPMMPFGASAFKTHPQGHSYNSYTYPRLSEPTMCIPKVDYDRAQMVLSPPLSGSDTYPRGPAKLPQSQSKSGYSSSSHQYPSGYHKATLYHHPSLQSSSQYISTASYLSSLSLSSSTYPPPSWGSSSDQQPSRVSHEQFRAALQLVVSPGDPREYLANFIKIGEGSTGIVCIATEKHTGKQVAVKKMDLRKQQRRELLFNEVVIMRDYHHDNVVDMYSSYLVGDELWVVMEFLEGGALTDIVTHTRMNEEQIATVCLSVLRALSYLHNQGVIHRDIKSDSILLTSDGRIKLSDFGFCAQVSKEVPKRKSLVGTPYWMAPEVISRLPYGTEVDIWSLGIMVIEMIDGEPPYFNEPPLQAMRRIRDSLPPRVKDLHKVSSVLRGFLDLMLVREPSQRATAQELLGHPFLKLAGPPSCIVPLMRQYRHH

[6] = species on record: Bos taurus; experiment: Protein Serine/Threonine Kinase, PKA, Non-Selective Eurofins-Panlabs enzyme assay; type: protein-complex assay; set-up: substrate with concentration 370 µg/mL Histone Type III-S, incubation time 15 min, incubation temperature 25 °C; conditions: Compound concentration 10.0 uM
[7] = target: T3, Muscarinic acetylcholine receptor M4 (Homo sapiens) (UniProt P08173); conditions: Compound concentration 10.0 uM
T3 sequence (whole entry): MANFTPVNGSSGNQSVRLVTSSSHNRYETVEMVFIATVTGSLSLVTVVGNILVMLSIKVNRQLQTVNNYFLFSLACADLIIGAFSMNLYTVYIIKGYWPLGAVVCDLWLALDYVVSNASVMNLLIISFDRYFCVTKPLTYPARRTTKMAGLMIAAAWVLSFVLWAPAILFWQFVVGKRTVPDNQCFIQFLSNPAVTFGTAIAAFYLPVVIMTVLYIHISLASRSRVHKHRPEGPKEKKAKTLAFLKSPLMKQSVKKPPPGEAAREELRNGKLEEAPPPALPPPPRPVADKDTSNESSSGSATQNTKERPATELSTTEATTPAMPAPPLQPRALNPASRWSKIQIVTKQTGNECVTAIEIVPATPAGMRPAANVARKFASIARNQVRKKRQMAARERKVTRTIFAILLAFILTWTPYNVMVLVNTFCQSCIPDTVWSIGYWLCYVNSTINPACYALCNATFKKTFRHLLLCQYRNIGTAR

[8] = target: Bone morphogenetic protein receptor type-1A (Homo sapiens) (UniProt P36894); experiment: BMPR1A (ALK3) Kinase screen; conditions: Compound concentration 1.0 uM
Bone morphogenetic protein receptor type-1A (Homo sapiens), sequence (P36894 whole entry): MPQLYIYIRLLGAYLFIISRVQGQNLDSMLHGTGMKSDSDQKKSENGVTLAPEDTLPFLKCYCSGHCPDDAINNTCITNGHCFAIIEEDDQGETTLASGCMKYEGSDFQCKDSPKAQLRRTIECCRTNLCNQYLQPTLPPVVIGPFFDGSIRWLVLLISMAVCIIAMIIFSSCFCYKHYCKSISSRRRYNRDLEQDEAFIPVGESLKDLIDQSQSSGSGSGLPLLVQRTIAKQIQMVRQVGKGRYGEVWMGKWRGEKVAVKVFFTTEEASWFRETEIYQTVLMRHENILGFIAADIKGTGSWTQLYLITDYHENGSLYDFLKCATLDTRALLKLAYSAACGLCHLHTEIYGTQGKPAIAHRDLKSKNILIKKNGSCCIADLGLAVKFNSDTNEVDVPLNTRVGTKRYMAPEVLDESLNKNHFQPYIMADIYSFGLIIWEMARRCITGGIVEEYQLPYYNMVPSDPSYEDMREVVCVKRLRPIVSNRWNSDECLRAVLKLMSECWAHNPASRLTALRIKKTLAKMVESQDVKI

[9] = target: Tyrosine-protein kinase Fgr (Homo sapiens) (UniProt P09769); experiment: FGR Kinase screen; conditions: Compound concentration 1.0 uM
Tyrosine-protein kinase Fgr (Homo sapiens), sequence (P09769 2-529 limits assumed): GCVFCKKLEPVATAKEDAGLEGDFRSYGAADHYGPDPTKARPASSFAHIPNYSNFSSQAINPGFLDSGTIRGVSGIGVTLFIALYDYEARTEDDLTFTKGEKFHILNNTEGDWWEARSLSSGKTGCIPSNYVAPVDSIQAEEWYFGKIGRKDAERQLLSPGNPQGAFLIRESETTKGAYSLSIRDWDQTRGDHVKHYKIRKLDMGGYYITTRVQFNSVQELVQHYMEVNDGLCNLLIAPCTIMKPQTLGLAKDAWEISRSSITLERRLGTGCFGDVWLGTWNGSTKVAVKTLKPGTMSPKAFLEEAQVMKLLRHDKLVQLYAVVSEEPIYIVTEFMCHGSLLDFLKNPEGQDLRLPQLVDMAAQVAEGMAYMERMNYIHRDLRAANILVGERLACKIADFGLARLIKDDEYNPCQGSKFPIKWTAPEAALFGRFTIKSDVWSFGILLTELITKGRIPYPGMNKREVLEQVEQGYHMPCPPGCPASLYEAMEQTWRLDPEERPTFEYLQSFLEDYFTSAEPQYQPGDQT

[10] = target: Angiopoietin-1 receptor (Homo sapiens) (UniProt Q02763); experiment: TEK (Tie2) Kinase screen; conditions: Compound concentration 1.0 uM
Angiopoietin-1 receptor (Homo sapiens), sequence (Q02763 whole entry): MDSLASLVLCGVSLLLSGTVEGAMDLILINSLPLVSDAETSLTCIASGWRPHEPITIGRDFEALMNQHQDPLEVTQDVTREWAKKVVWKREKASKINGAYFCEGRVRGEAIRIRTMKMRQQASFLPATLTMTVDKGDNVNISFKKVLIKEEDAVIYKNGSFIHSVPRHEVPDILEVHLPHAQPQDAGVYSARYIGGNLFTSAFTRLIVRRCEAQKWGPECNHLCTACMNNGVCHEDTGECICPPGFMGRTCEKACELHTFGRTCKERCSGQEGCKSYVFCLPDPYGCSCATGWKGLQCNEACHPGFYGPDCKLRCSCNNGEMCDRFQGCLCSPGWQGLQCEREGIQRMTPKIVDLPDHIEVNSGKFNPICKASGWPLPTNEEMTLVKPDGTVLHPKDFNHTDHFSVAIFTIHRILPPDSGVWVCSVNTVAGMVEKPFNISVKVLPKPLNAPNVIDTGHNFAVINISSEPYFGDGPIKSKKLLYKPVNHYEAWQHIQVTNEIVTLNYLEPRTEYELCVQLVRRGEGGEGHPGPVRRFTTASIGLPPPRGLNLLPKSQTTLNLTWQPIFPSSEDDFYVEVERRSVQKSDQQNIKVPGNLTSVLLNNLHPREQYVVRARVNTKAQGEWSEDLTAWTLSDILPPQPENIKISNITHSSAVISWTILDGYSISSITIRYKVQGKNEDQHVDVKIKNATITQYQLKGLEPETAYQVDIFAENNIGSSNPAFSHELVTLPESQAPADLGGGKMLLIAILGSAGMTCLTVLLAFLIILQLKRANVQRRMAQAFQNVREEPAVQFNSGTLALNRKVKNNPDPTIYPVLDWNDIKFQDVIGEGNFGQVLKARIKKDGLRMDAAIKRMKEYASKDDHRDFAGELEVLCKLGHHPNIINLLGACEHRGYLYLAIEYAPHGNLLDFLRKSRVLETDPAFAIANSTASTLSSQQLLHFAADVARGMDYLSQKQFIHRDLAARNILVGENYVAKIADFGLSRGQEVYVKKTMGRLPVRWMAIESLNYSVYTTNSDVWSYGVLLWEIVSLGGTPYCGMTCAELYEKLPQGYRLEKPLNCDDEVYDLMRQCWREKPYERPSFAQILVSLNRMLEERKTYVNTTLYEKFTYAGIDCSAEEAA

[11] = target: Phosphatidylinositol 3-kinase catalytic subunit type 3 (Homo sapiens) (UniProt Q8NEB9); experiment: PIK3C3 (hVPS34) Kinase screen; conditions: Compound concentration 1.0 uM
Phosphatidylinositol 3-kinase catalytic subunit type 3 (Homo sapiens), sequence (Q8NEB9 whole entry): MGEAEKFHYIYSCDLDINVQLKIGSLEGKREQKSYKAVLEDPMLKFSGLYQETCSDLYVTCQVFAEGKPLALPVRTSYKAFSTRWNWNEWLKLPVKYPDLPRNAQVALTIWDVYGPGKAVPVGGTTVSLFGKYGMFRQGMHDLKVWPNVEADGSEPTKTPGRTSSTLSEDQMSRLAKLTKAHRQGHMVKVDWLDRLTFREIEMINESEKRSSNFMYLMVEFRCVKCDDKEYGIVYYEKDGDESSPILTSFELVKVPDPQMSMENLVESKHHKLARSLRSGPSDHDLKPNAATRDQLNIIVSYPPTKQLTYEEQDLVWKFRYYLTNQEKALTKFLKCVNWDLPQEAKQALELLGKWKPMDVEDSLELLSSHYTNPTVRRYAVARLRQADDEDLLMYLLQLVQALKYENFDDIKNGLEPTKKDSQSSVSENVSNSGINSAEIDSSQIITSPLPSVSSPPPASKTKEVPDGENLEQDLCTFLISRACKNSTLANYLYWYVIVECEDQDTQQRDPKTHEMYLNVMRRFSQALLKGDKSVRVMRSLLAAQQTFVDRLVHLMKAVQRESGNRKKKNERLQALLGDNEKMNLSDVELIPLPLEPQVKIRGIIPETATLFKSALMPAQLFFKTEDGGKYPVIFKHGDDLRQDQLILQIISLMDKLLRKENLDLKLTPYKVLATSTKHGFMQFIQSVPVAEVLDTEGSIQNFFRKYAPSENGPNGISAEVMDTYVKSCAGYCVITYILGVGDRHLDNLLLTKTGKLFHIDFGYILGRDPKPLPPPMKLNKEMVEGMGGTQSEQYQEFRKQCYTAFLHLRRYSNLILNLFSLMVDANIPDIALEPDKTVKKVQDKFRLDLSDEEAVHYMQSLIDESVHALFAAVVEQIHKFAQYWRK

Measured: inhibition

High affinity nerve growth factor receptor (Homo sapiens), sequence (P04629 33-796 limits assumed): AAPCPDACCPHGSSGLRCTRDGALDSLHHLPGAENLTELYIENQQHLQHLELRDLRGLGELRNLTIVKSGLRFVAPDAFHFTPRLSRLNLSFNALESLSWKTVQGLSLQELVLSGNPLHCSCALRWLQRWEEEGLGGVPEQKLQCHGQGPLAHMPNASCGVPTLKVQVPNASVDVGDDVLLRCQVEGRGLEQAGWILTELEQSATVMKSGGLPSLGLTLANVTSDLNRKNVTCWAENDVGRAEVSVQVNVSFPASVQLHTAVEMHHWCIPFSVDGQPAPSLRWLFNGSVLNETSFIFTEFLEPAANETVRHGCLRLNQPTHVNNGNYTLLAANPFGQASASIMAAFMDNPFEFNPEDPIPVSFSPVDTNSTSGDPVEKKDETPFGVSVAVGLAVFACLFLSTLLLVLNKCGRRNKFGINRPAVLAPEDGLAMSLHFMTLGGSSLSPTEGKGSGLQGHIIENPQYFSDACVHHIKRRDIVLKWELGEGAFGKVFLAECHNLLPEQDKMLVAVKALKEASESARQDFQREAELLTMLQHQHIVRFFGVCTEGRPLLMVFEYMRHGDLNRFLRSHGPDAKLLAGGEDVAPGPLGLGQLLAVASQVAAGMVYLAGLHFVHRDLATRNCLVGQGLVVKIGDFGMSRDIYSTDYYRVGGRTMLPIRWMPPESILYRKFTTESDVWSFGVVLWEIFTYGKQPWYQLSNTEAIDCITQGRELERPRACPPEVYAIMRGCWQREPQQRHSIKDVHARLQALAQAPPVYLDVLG
5-hydroxytryptamine receptor 7 (Homo sapiens), sequence (P34969 whole entry): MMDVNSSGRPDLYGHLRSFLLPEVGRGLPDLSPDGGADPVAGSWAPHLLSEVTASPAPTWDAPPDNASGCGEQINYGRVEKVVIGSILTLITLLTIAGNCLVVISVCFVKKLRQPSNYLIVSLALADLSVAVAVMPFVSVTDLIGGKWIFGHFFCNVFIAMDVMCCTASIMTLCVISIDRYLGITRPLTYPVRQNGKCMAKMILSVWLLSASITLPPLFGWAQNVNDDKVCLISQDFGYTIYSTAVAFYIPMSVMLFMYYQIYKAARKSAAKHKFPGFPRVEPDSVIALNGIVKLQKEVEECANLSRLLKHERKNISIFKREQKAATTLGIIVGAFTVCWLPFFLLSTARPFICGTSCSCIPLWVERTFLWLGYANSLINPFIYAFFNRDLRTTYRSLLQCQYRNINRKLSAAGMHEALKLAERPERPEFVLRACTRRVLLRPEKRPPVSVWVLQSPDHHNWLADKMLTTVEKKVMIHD

C[C@@H]1CN(c2cc(-c3nn(C)c4ccc(OC5(C)CC5)cc34)ncn2)C[C@H](C)O1 [MLi-2-NC]
inactive: [1] -0.4%

C[C@@H]1CN(c2cc(-c3n[nH]c4ccc(OC5(C)CC5)cc34)ncn2)C[C@H](C)O1 [MLi-2]
inactive: [2] 0.799% | [3] 1% | [4] 1.23% | [5] 5.96% | [6] 16% | [7] 26% | [8] 0.759% | [9] -2.24% | [10] 2.36% | [11] 19.4%

Source: ChEMBL document CHEMBL4507291 (2021)
